According to the NIST ThermoML archive (doi:10.1016/j.jct.2018.09.012):
± gives the expanded uncertainty stated by the source.

Experiments:
[1] = Molar enthalpy of transition or fusion; settings: Crystal; DSC
[2] = for vapor or sublimation pressure: Gas chromatography; for Normal melting temperature: Crystal

SMILES | Molar enthalpy of transition or fusion [1] [kJ/mol] | vapor or sublimation pressure ([2]; 298.15 K, Metastable liquid) [kPa] | vapor or sublimation pressure ([2]; 310 K, Metastable liquid) [kPa] | vapor or sublimation pressure ([2]; 320 K, Metastable liquid) [kPa] | vapor or sublimation pressure ([2]; 330 K, Metastable liquid) [kPa] | vapor or sublimation pressure ([2]; 340 K, Metastable liquid) [kPa] | vapor or sublimation pressure ([2]; 360 K, Liquid) [kPa] | vapor or sublimation pressure ([2]; 370 K, Liquid) [kPa] | vapor or sublimation pressure ([2]; 380 K, Liquid) [kPa] | vapor or sublimation pressure ([2]; 390 K, Liquid) [kPa] | vapor or sublimation pressure ([2]; 400 K, Liquid) [kPa] | vapor or sublimation pressure ([2]; 410 K, Liquid) [kPa] | vapor or sublimation pressure ([2]; 420 K, Liquid) [kPa] | vapor or sublimation pressure ([2]; 430 K, Liquid) [kPa] | vapor or sublimation pressure ([2]; 440 K, Liquid) [kPa] | vapor or sublimation pressure ([2]; 450 K, Liquid) [kPa] | Normal melting temperature ([2]; DTA) [°C] | vapor or sublimation pressure ([2]; 350 K, Metastable liquid) [kPa] | also measured
CC1(C)CCC[C@]2(C)[C@H]3CCO[C@]3(C)CC[C@@H]12 [(-)-Ambroxide] | 20.3 ± 0.8 | 0.00012 ± 3e-05 | 0.00039 ± 0.00011 | 0.00096 ± 0.00025 | 0.0023 ± 0.0006 | 0.0049 ± 0.0012 | 0.02 ± 0.004 | 0.038 ± 0.007 | 0.069 ± 0.012 | 0.12 ± 0.018 | 0.2 ± 0.026 | 0.32 ± 0.039 | 0.51 ± 0.057 | 0.77 ± 0.086 | 1.1 ± 0.13 | 1.7 ± 0.2 | 72.7 ± 1.3 | – | vapor or sublimation pressure ([2]; 350 K, Liquid): 0.01 ± 0.002 kPa; vapor or sublimation pressure ([2]; 460 K, Liquid): 2.4 ± 0.24 kPa; vapor or sublimation pressure ([2]; 470 K, Liquid): 3.4 ± 0.34 kPa; vapor or sublimation pressure ([2]; 480 K, Liquid): 4.7 ± 0.47 kPa; vapor or sublimation pressure ([2]; 490 K, Liquid): 6.3 ± 0.63 kPa; vapor or sublimation pressure ([2]; 500 K, Liquid): 8.4 ± 0.84 kPa; Normal melting temperature ([2]; visual observation): 75.00 ± 3 °C
c1ccc2ccccc2c1 [naphthalene] | 19.1 ± 0.45 | – | – | – | – | – | – | – | – | – | – | – | – | – | – | – | 79.2 ± 1.4 | – | –
CC1COCc2cc3c(cc21)C(C)(C)C(C)C3(C)C (stereo not drawn) [Galaxolide] | – | 2.6e-05 ± 8e-06 | 9.9e-05 ± 2.9e-05 | 0.00027 ± 8e-05 | 0.00071 ± 0.00019 | 0.0017 ± 0.0004 | – | – | – | – | – | – | – | – | – | – | – | 0.0038 ± 0.0009 | vapor or sublimation pressure ([2]; 360 K, Metastable liquid): 0.0081 ± 0.0018 kPa; vapor or sublimation pressure ([2]; 370 K, Metastable liquid): 0.016 ± 0.003 kPa; vapor or sublimation pressure ([2]; 380 K, Metastable liquid): 0.032 ± 0.006 kPa; vapor or sublimation pressure ([2]; 390 K, Metastable liquid): 0.058 ± 0.009 kPa; vapor or sublimation pressure ([2]; 400 K, Metastable liquid): 0.1 ± 0.014 kPa; vapor or sublimation pressure ([2]; 410 K, Metastable liquid): 0.16 ± 0.022 kPa; vapor or sublimation pressure ([2]; 420 K, Metastable liquid): 0.29 ± 0.035 kPa; vapor or sublimation pressure ([2]; 430 K, Metastable liquid): 0.46 ± 0.055 kPa; vapor or sublimation pressure ([2]; 440 K, Metastable liquid): 0.72 ± 0.088 kPa; vapor or sublimation pressure ([2]; 450 K, Metastable liquid): 1.1 ± 0.14 kPa; vapor or sublimation pressure ([2]; 460 K, Metastable liquid): 1.6 ± 0.16 kPa; vapor or sublimation pressure ([2]; 470 K, Metastable liquid): 2.4 ± 0.24 kPa; vapor or sublimation pressure ([2]; 480 K, Metastable liquid): 3.4 ± 0.34 kPa; vapor or sublimation pressure ([2]; 490 K, Metastable liquid): 4.8 ± 0.48 kPa; vapor or sublimation pressure ([2]; 500 K, Metastable liquid): 6.6 ± 0.66 kPa
c1ccc2c(c1)oc1ccccc12 [dibenzo[bd]furan] | – | 0.0011 ± 0.0001 | 0.0031 ± 0.0003 | 0.007 ± 0.0007 | 0.015 ± 0.002 | 0.03 ± 0.003 | 0.11 ± 0.011 | 0.18 ± 0.018 | 0.31 ± 0.031 | 0.51 ± 0.051 | 0.8 ± 0.08 | 1.2 ± 0.12 | 1.8 ± 0.18 | 2.6 ± 0.26 | 3.7 ± 0.37 | 5.2 ± 0.52 | – | 0.058 ± 0.006 | –
